We go through 17 compounds from US9096532B2, “Pyrazole inhibitors of COX-2 and sEH” (The Regents of the University of California, priority 2010, dated 2015).

For series [1], the target named is T1, ovine COX-1 (Ovis aries, UniProt P05979).
T1 construct: purchased Cayman Chemical 700100
T1 sequence (P05979 25-600): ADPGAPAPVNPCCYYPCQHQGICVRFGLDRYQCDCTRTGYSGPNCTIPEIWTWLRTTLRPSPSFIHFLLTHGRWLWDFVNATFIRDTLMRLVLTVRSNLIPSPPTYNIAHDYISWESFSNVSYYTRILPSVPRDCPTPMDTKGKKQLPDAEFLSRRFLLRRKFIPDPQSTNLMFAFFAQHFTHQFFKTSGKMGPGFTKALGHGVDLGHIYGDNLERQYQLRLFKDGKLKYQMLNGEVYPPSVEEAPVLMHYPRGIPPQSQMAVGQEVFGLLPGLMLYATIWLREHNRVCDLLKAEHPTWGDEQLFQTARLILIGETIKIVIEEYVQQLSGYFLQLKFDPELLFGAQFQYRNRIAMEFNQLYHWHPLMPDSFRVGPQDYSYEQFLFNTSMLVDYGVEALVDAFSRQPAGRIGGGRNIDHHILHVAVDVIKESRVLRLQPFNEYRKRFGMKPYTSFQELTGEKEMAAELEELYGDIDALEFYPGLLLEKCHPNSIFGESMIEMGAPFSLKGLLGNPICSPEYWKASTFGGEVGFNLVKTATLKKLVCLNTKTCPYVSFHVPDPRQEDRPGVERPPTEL
Description: Cyclooxygenase inhibition assay (COX Fluorescent Inhibitor Screening Assay Kit), COX-1. The series is classed as biochemical. Particulars: read-out: COX-1 (% inhibition). As to the method: (§1) Stock solutions of test compounds are dissolved in a minimum volume of DMSO. 10 μl of various concentrations of the test compound solutions, e.g., [I]final between 0.01 and 100 μM, are added to a series of supplied reaction buffer solutions (150 μl, 100 mM Tris-HCl, pH 8.0) with either COX-1 or COX-2 (10 μl) enzyme in the presence of Heme (10 μl) and a fluorometric substrate (10 μl). The reactions are initiated by quickly adding 10 μl of arachidonic acid solution and then incubating the system for two minutes at room temperature. […] The intensity of this fluorescence is proportional to the amount of resorufin, which is proportional to the amount of PGG2 present in the well during the incubation. Percent inhibition is calculated by comparison from the 100% initial activity sample value (no inhibitor).
as §1, with “compounds were” for “compounds are”, “μM, were” for “μM, are”, “reactions were” for “reactions are”, “then incubated” for “then incubating the system”, “inhibition was” for “inhibition is”

The nature of series [2]: Pharmacokinetics in mice by oral cassette dosing. The series is classed as in vivo. The settings on record: oral cassette dosing at 5 mg/kg, blood.
Description: All the animal experiments were performed according to protocols approved by the Animal Use and Care Committee of University of California, Davis. […] Each cassette was orally administered to 4 mice at a dose of 5 mg/kg in 120-150 μl of vehicle depending on animal weight. […] The instrument was equipped with a linear ion trap and a Turbo V ion source and was operated in negative ion MRM mode. […] This was maintained for 3 min, then the gradient was returned to 30% solvent B in 2 min. The flow rate was 0.4 mL/min. The injection volume was 10 μL and the samples were kept at 4° C. in the auto sampler.
The target in series [3] is T2, human sEH (Homo sapiens, UniProt P34913).
T2 sequence (P34913 1-555): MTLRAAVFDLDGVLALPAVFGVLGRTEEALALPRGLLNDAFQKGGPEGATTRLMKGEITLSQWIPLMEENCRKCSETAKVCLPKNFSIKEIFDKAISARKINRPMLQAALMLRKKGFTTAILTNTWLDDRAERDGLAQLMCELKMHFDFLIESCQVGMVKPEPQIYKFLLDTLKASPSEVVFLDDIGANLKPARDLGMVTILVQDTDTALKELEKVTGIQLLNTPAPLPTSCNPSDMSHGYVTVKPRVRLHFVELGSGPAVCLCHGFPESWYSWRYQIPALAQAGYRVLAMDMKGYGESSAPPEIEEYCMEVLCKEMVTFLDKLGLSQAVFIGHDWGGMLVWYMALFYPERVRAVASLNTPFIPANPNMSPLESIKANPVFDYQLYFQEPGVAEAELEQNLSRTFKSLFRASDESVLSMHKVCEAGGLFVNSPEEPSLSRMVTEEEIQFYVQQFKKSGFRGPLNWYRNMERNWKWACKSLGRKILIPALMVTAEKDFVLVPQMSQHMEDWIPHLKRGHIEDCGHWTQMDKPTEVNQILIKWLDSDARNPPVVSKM
As to the kind of experiment: sEH IC50 assay, fluorescent-based with CMNPC substrate. The series is classed as biochemical. Particulars: for IC50: kinetic fluorescent assay, means ± SD of three separate experiments. The method, then: sEH inhibition IC50 values for the compounds presented herein can be assayed by a recombinant affinity assay using purified sEHs, from human, mouse or rat, in a fluorescent-based assay.
For the recombinant affinity assay, purified sEHs (human, mouse and rat) were used in a fluorescent-based assay to determine IC50 values. […] These IC50 values were calculated from at least three separate runs, each in triplicate, to obtain the statistics herein, e.g., standard deviation.

Bounds are passed on as bounds.

As usually defined, the inhibition is the share of the control response that was lost under treatment. For the compound `CS(=O)(=O)c1ccc(-n2nc(CCCNC(=O)Nc3cccc(C(F)(F)F)c3)cc2-c2ccccc2)cc1` [Compound 21a, 1-{3-[1-(4-Methanesulfonyl-phenyl)-5-phenyl-1H-pyrazol-3-yl]-propyl}-3-(3-trifluoromethyl-phenyl)-urea], in series [1], the inhibition at 100 µM is 6.4%.
On the same count and under the same terms, to `CC(C)(C)c1cc(CNC(=O)Nc2cccc(C(F)(F)F)c2)nn1-c1ccc(S(C)(=O)=O)cc1` [Compound 11h, 1-[5-tert-Butyl-1-(4-methanesulfonyl-phenyl)-1H-pyrazol-3-ylmethyl]-3-(3-trifluoromethyl-phenyl)-urea] belongs 2.4%.
Turning to `NS(=O)(=O)c1ccc(-n2nc(CNC(=O)Nc3cccc(C(F)(F)F)c3)cc2-c2ccccc2)cc1` [Compound 11g, 4-{5-Phenyl-3-[3-(3-trifluoromethyl-phenyl)-ureidomethyl]-pyrazol-1-yl}-benzenesulfonamide], the inhibition at 100 µM in series [1] stood at 16.9%.
One may read the AUC as the area under the concentration-time curve, a measure of exposure. A high value points to more exposure. The term Cmax denotes the highest concentration seen after dosing. By Tmax is commonly meant the time from dosing to the highest level. With `NS(=O)(=O)c1ccc(-n2nc(CCCNC(=O)NC3CCCCCC3)cc2-c2ccccc2)cc1` [Compound 21g, 4-{3-[3-(3-Cycloheptyl-ureido)-propyl]-5-phenyl-pyrazol-1-yl}-benzenesulfonamide], in series [2], the AUC was 0.1 µM·h, the peak level (Cmax) was 42 nM, the Tmax was found to be 0.5 h and the t1/2 worked out at 3.5 h. Moreover, in series [1], the inhibition at 100 µM was found to be 10.2%.
The matching figures for `NS(=O)(=O)c1ccc(-n2nc(CCCNC(=O)Nc3ccc(Cl)cc3)cc2-c2ccccc2)cc1` [Compound 21h, 4-(3-{3-[3-(4-Chloro-phenyl)-ureido]-propyl}-5-phenyl-pyrazol-1-yl)-benzenesulfonamide]: 0.375 µM·h, 190 nM, 0.8 h, 2.4 h and 15.2%.
`CS(=O)(=O)c1ccc(-n2nc(CNC(=O)Nc3ccc(OC(F)(F)F)cc3)cc2-c2ccccc2)cc1` [Compound 11d, 1-[1-(4-Methanesulfonyl-phenyl)-5-phenyl-1H-pyrazol-3-ylmethyl]-3-(4-trifluoromethoxy-phenyl)-urea]: the inhibition at 100 µM in series [1] was found to be 10.4%.
What is called IC50 is the concentration that gives 50% inhibition. Turning to `CS(=O)(=O)c1ccc(C2=C(c3ccccc3)C(=O)OC2)cc1` [Rofecoxib, rofecoxib, reference compound], in series [3], the IC50 is greater than 10 µM. The inhibition at 100 µM in series [1] came out at 16.5%.
For `NS(=O)(=O)c1ccc(-n2nc(CCNC(=O)Nc3cccc(C(F)(F)F)c3)cc2-c2ccccc2)cc1` [Compound 15, 4-(5-Phenyl-3-{2-[3-(3-trifluoromethyl-phenyl)-ureido]-ethyl}-pyrazol-1-yl)-benzenesulfonamide], the “Improvement of sEH inhibition” value in series [3] (compared to compound 11g) stood at 3 fold. Moreover, the inhibition at 100 µM in series [1] is 22%.
Consider `CS(=O)(=O)c1ccc(-n2nc(CNC(=O)Nc3ccc(C(F)(F)F)cc3)cc2-c2ccccc2)cc1` [Compound 11e, 1-[1-(4-Methanesulfonyl-phenyl)-5-phenyl-1H-pyrazol-3-ylmethyl]-3-(4-trifluoromethyl-phenyl)-urea], for which, in series [1], the inhibition at 100 µM turned out to be 10.7%.
Still for that read-out and setting: to `CS(=O)(=O)c1ccc(-n2nc(CNC(=O)NC34CC5CC(CC(C5)C3)C4)cc2-c2ccccc2)cc1` [Compound 11a, 1-Adamantan-1-yl-3-[1-(4-methanesulfonyl-phenyl)-5-phenyl-1H-pyrazol-3-ylmethyl]-urea] belongs 12.7%.
Consider `CS(=O)(=O)c1ccc(-n2nc(CNC(=O)NC3CCCCCC3)cc2-c2ccccc2)cc1` [Compound 11b, 1-Cycloheptyl-3-[1-(4-methanesulfonyl-phenyl)-5-phenyl-1H-pyrazol-3-ylmethyl]-urea], for which, in series [3] (compared to compound 11a), the “Improvement of sEH inhibition” value is on record as 10 fold. In addition, the inhibition at 100 µM in series [1] worked out at 3.4%.
With `Cc1cccc(C)c1NC(=O)NCCCc1cc(-c2ccccc2)n(-c2ccc(S(N)(=O)=O)cc2)n1` [Compound 21d, 4-(3-{3-[3-(2,6-Dimethyl-phenyl)-ureido]-propyl}-5-phenyl-pyrazol-1-yl)-benzenesulfonamide], inhibition in series [3] was half-maximal at 1.55 ± 0.07 µM (IC50). Also, in series [1], the inhibition at 100 µM amounted to 6.2%.
With `CS(=O)(=O)c1ccc(-n2nc(CNC(=O)Nc3cccc(C(F)(F)F)c3)cc2-c2ccccc2)cc1` [Compound 11f, 1-[1-(4-Methanesulfonyl-phenyl)-5-phenyl-1H-pyrazol-3-ylmethyl]-3-(3-trifluoromethyl-phenyl)-urea], the inhibition at 100 µM in series [1] was 7.8%.
In series [3], `COc1ccc2c(c1)c(CC(=O)O)c(C)n2C(=O)c1ccc(Cl)cc1` [Indomethacin, reference compound] displayed an IC50 greater than 10 µM.
As to `NS(=O)(=O)c1ccc(-n2nc(CCCNC(=O)Nc3ccccc3)cc2-c2ccccc2)cc1` [Compound 21e, 4-{5-Phenyl-3-[3-(3-phenyl-ureido)-propyl]-pyrazol-1-yl}-benzenesulfonamide], in series [2], the AUC is 0.125 µM·h, the Cmax is 100 nM, the Tmax is given as 0.5 h and the t1/2 came to 3.1 h. Besides, the inhibition at 100 µM in series [1] was 15.8%.
For `NS(=O)(=O)c1ccc(-n2nc(NC(=O)Nc3cccc(C(F)(F)F)c3)cc2-c2ccccc2)cc1` [Compound 7, 4-{5-Phenyl-3-[3-(3-trifluoromethyl-phenyl)-ureido]-pyrazol-1-yl}-benzenesulfonamide], in series [1], the inhibition at 100 µM came to 33.9%.
As for `NS(=O)(=O)c1ccc(-n2nc(CCCNC(=O)NC34CC5CC(CC(C5)C3)C4)cc2-c2ccccc2)cc1` [Compound 21f, 4-{3-[3-(3-Adamantan-1-yl-ureido)-propyl]-5-phenyl-pyrazol-1-yl}-benzenesulfonamide], in series [2], the AUC was determined as 0.022 µM·h, the highest level (Cmax) was 20 nM, the Tmax was 0.5 h and the t1/2 is given as 1.7 h. Besides, in series [1], the inhibition at 100 µM was found to be 6.7%.
